Source: US20250243171A1, “QUINAZOLINE COMPOUNDS FOR TREATMENT OF DISEASE” (Arthrosi Therapeutics, Inc., priority 2021, published 2025)

How the values were obtained:
Assay in all cases: EC50 assay: Ba/F3 stable cell proliferation (CCK-8, 72 h)
Format in all cases: cell-based
Ba/F3 stable cells [1] = target: T1, Ba/F3 stable cells (Homo sapiens, UniProt P00533, DUP768-770, cells depend on it); conditions: Ba/F3-EGFR D770-N771insSVD cells
T1 construct: EC50 Ba/F3-EGFR D770-N771insSVD; other: Ba/F3-EGFR D770-N771insSVD cells, 72 h, CCK-8
Protocol: (§1) 4,000 Ba/F3 stable cells/90 μL/well were plated onto 96-well cell culture plate (Grenier, Cat.No. 655180) and incubated at 37° C. with a humidified atmosphere of 5% CO2 for 2 h. Then the cells were treated with 10 μL compounds at serial titration. The final DMSO concentration is 0.1%. The cells treated with 0.1% DMSO (Vetec, Cat.No.V900090) as a positive control (Max), and medium with 0.1% DMSO was as a negative control (Min). Incubated the cells at 37° C. for 72 h. 10 μL the cell proliferation reagent CCK-8 (Dojindo, Cat.No. CK04 1000T) was added into each well and incubated the plate at 37° C. for 4 hours, the GD value was measured by SPECTRAmax plus (Molecular Devices) at 450 nm. Data processing with Graphpad 7.0.

Ba/F3 stable cells [2] = target: T2, Ba/F3 stable cells (Homo sapiens, UniProt P04626, DUP772-775, cells depend on it); conditions: Ba/F3-HER2 A775-G776insYVMA cells
T2 construct: EC50 Ba/F3-HER2 A775-G776insYVMA; other: Ba/F3-HER2 A775-G776insYVMA cells, 72 h, CCK-8
Protocol: as §1

Ba/F3 stable cells [3] = target: T3, Ba/F3 stable cells (Homo sapiens, UniProt P00533, T790M/L858R, cells depend on it); conditions: Ba/F3-EGFR L858R-T790M cells
T3 construct: EC50 Ba/F3-EGFR L858R-T790M; other: Ba/F3-EGFR L858R-T790M cells, 72 h, CCK-8
Protocol: as §1

Ba/F3 stable cells [4] = target: T4, Ba/F3 stable cells (Homo sapiens, UniProt P00533, INS763FQEA, cells depend on it); conditions: Ba/F3-EGFR A763-Y764insFQEA cells
T4 construct: EC50 Ba/F3-EGFR A763-Y764insFQEA; other: Ba/F3-EGFR A763-Y764insFQEA cells, 72 h, CCK-8
Protocol: as §1

Ba/F3 stable cells [5] = target: T5, Ba/F3 stable cells (Homo sapiens, UniProt P00533, DUP767-769, cells depend on it); conditions: Ba/F3-EGFR V769-D770insASV cells
T5 construct: EC50 Ba/F3-EGFR V769-D770insASV; other: Ba/F3-EGFR V769-D770insASV cells, 72 h, CCK-8
Protocol: as §1

Ba/F3 stable cells [6] = target: T6, Ba/F3 stable cells (Homo sapiens, UniProt P00533, DUP771-773, cells depend on it); conditions: Ba/F3-EGFR H773-V774insNPH cells
T6 construct: EC50 Ba/F3-EGFR H773-V774insNPH; other: Ba/F3-EGFR H773-V774insNPH cells, 72 h, CCK-8
Protocol: as §1

T4 sequence (P00533 with tags, fused parts or gaps INS763FQEA): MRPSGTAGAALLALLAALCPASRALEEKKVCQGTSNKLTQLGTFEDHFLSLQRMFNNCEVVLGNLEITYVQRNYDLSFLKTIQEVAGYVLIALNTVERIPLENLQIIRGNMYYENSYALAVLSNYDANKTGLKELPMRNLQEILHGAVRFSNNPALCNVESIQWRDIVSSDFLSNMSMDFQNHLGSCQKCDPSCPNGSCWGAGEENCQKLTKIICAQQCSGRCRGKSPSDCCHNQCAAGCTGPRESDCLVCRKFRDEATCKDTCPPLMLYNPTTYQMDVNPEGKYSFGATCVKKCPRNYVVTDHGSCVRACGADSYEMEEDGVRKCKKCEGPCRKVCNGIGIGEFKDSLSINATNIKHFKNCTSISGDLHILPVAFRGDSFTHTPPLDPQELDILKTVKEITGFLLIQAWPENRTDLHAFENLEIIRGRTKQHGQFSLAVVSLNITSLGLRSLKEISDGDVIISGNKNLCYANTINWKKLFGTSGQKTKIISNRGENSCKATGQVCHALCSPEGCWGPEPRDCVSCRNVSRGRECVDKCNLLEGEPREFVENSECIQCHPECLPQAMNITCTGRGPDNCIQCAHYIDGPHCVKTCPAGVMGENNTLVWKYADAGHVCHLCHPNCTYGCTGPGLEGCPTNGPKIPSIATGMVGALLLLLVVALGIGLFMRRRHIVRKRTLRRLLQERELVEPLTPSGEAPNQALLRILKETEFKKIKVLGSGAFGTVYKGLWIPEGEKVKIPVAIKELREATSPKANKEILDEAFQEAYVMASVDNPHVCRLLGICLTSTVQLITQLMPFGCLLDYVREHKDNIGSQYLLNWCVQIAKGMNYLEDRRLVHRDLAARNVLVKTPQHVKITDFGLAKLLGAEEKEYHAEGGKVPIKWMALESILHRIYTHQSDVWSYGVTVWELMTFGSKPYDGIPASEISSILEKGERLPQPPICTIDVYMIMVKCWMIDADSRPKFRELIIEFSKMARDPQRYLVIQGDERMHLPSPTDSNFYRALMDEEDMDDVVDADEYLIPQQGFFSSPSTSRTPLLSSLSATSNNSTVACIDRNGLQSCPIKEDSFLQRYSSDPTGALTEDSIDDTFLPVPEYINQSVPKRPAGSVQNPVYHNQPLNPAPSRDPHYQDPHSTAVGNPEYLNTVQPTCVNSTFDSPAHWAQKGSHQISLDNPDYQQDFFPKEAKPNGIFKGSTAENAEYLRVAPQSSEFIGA
T1 sequence (P00533 with tags, fused parts or gaps DUP768-770): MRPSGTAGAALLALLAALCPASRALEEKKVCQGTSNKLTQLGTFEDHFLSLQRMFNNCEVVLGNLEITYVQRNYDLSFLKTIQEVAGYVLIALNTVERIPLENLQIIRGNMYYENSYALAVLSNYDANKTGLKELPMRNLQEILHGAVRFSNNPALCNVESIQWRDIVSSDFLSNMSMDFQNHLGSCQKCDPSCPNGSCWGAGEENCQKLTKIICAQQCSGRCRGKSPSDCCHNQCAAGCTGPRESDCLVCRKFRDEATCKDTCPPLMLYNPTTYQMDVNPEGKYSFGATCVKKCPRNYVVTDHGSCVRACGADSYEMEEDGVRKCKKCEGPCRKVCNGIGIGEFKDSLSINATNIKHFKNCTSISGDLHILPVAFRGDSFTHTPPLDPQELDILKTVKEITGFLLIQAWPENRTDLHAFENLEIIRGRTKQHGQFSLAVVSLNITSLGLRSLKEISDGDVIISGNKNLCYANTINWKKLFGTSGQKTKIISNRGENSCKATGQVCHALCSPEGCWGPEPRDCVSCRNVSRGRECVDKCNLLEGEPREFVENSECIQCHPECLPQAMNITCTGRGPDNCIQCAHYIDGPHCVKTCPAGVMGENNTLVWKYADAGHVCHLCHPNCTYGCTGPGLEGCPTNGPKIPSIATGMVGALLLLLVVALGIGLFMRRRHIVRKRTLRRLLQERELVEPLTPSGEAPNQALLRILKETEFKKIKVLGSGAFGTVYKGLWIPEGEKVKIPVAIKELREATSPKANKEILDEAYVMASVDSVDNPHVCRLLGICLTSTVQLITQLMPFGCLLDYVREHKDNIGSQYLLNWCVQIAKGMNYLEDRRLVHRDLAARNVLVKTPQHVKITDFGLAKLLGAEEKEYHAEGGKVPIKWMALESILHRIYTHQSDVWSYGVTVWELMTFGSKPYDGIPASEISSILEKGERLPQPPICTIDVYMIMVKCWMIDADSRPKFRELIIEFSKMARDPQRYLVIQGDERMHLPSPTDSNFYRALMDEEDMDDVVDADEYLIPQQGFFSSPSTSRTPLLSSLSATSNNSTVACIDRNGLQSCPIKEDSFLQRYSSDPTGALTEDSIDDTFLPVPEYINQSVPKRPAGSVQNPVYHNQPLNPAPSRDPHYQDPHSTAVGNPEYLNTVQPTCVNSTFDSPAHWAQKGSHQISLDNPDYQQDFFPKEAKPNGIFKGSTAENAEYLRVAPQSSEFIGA
T2 sequence (P04626 with tags, fused parts or gaps DUP772-775): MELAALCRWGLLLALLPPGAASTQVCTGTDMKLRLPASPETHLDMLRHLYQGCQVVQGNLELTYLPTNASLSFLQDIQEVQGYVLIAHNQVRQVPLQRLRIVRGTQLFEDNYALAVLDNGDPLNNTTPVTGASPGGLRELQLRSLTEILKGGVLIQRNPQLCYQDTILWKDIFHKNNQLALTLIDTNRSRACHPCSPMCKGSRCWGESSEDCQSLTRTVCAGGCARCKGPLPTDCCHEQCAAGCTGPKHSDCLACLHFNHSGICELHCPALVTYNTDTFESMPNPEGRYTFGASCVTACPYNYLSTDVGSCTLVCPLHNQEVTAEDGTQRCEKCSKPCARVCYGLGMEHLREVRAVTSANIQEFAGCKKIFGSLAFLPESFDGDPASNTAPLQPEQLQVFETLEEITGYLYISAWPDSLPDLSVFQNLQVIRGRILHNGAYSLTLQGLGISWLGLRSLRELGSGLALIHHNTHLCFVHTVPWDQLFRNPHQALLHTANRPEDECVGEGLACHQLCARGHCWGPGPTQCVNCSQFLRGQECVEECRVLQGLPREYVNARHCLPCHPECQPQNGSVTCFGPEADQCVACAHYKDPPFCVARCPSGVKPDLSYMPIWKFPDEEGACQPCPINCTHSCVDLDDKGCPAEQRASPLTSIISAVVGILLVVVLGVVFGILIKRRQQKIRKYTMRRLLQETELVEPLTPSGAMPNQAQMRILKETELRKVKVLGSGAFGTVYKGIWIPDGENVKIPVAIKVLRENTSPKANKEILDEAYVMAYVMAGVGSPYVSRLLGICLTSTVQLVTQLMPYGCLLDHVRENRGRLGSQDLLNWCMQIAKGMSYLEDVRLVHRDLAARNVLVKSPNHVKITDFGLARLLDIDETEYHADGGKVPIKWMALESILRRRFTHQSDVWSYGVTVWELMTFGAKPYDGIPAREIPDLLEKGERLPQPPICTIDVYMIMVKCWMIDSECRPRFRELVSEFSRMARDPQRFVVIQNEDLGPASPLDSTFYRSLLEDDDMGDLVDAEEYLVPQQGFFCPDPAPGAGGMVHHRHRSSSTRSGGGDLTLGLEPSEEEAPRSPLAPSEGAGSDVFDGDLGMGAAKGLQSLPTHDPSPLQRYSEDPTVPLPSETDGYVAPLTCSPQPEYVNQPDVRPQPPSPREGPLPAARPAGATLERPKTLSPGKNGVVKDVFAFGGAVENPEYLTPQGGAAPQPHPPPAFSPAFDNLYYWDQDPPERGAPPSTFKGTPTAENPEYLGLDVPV
T5 sequence (P00533 with tags, fused parts or gaps DUP767-769): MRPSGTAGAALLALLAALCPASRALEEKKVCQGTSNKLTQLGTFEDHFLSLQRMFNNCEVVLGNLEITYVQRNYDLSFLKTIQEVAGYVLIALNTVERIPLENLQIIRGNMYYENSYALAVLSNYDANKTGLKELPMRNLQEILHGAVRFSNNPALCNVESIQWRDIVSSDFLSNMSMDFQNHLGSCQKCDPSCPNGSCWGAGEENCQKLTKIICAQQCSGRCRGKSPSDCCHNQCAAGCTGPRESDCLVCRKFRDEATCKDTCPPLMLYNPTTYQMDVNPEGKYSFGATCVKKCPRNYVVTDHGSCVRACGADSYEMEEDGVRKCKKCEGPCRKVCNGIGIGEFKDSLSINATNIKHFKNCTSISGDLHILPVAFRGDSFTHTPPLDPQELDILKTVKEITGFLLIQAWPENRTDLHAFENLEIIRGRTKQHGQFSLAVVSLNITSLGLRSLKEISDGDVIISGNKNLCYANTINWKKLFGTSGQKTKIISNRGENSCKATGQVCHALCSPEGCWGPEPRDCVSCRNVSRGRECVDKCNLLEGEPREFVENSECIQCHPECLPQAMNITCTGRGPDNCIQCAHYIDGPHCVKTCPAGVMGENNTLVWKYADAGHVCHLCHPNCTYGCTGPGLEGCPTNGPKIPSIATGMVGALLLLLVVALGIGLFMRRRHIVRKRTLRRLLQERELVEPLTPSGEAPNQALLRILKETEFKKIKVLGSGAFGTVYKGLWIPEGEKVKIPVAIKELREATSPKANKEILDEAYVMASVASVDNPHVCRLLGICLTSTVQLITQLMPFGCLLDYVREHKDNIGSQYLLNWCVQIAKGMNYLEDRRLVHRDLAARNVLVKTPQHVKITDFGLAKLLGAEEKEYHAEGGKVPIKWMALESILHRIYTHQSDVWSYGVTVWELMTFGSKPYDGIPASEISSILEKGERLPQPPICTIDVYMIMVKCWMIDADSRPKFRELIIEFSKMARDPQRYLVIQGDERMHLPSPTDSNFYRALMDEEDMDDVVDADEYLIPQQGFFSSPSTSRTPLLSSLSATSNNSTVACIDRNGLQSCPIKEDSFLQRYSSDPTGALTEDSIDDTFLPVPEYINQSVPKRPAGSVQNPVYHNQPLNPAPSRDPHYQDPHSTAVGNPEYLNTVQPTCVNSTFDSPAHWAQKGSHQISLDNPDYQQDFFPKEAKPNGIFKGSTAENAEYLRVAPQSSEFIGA

SMILES	EC50 (Ba/F3 stable cells [1])	EC50 (Ba/F3 stable cells [2])	EC50 (Ba/F3 stable cells [3])	EC50 (Ba/F3 stable cells [4])	EC50 (Ba/F3 stable cells [5])	EC50 (Ba/F3 stable cells [6])
C#CC(=O)N1CC(c2cc3c(Nc4ccc(OCc5ccccc5)c(Cl)c4F)ncnc3cc2OC)C1 [Compound 41, 1-(3-(4-((4-(benzyloxy)-3-chloro-2-fluorophenyl)amino)-7-methoxyquinazolin-6-yl)azetidin-1-yl)prop-2-yn-1-one]	> 1000 nM	> 1000 nM	> 1000 nM	200 to 1000 nM	> 1000 nM	> 1000 nM
C#CC(=O)N[C@H]1C[C@H](Oc2cc3c(Nc4cccc5c4CCC5)ncnc3cc2OC)C1 [Compound 44, N-((1r,3r)-3-((4-((2,3-dihydro-1H-inden-4-yl)amino)-7-methoxyquinazolin-6-yl)oxy)cyclobutyl)propiolamide]	200 to 1000 nM	200 to 1000 nM	200 to 1000 nM	≤ 200 nM	≤ 200 nM	≤ 200 nM
C#CC(=O)N[C@H]1C[C@@H](Oc2cc3c(Nc4cccc5c4CCC5)ncnc3cc2OC)C1 [Compound 45, N-((1s,3s)-3-((4-((2,3-dihydro-1H-inden-4-yl)amino)-7-methoxyquinazolin-6-yl)oxy)cyclobutyl)propiolamide]	> 1000 nM	> 1000 nM	> 1000 nM	≤ 200 nM	> 1000 nM	> 1000 nM
C#CC(=O)NC1CC(Oc2cc3c(Nc4cccc5ccccc45)ncnc3cc2OC)C1 (stereo not drawn) [Compound 46, N-(3-((7-methoxy-4-(naphthalen-1-ylamino)quinazolin-6-yl)oxy)cyclobutyl)propiolamide]	200 to 1000 nM	≤ 200 nM	≤ 200 nM	≤ 200 nM	≤ 200 nM	≤ 200 nM
C#CC(=O)N[C@H]1C[C@H](Oc2cc3c(Nc4ccc5ccccc5c4)ncnc3cc2OC)C1 [Compound 48, N-((1r,3r)-3-((7-methoxy-4-(naphthalen-2-ylamino)quinazolin-6-yl)oxy)cyclobutyl)propiolamide]	200 to 1000 nM	200 to 1000 nM	≤ 200 nM	≤ 200 nM	≤ 200 nM	200 to 1000 nM
C=C(F)C(=O)N1CCC(Oc2cc3c(Nc4ccc(Cl)c(Cl)c4F)ncnc3cc2OC)CC1 [Compound 50, 1-(4-((4-((3,4-dichloro-2-fluorophenyl)amino)-7-methoxyquinazolin-6-yl)oxy)piperidin-1-yl)-2-fluoroprop-2-en-1-one]	> 1000 nM	200 to 1000 nM	> 1000 nM	≤ 200 nM	≤ 200 nM	200 to 1000 nM
C#CC(=O)N1C2CCC1CC(Oc1cc3c(Nc4cccc5c4CCC5)ncnc3cc1OC)C2 (stereo not drawn) [Compound 56, 1-(3-((4-((2,3-dihydro-1H-inden-4-yl)amino)-7-methoxyquinazolin-6-yl)oxy)-8-azabicyclo[3.2.1]octan-8-yl)prop-2-yn-1-one]	200 to 1000 nM	200 to 1000 nM	200 to 1000 nM	≤ 200 nM	≤ 200 nM	≤ 200 nM
C#CC(=O)N1C2CCCC1CC(Oc1cc3c(Nc4ccc5ccccc5c4)ncnc3cc1OC)C2 (stereo not drawn) [Compound 58, 1-(3-((7-methoxy-4-(naphthalen-2-ylamino)quinazolin-6-yl)oxy)-9-azabicyclo[3.3.1]nonan-9-yl)prop-2-yn-1-one]	200 to 1000 nM	≤ 200 nM	≤ 200 nM	≤ 200 nM	≤ 200 nM	≤ 200 nM
C#CC(=O)N1C2CCC1CC(Oc1cc3c(Nc4ccc5ccccc5c4)ncnc3cc1OC)C2 (stereo not drawn) [Compound 59, 1-(3-((7-methoxy-4-(naphthalen-2-ylamino)quinazolin-6-yl)oxy)-8-azabicyclo[3.2.1]octan-8-yl)prop-2-yn-1-one]	200 to 1000 nM	200 to 1000 nM	≤ 200 nM	≤ 200 nM	≤ 200 nM	≤ 200 nM
C#CC(=O)N1C2CCC1CC(Oc1cc3c(Nc4cccc5ccccc45)ncnc3cc1OC)C2 (stereo not drawn) [Compound 60, 1-(3-((7-methoxy-4-(naphthalen-1-ylamino)quinazolin-6-yl)oxy)-8-azabicyclo[3.2.1]octan-8-yl)prop-2-yn-1-one]	200 to 1000 nM	200 to 1000 nM	≤ 200 nM	≤ 200 nM	≤ 200 nM	≤ 200 nM

Results, then the compound that gave them:

EC50 (Ba/F3 stable cells [1])	EC50 (Ba/F3 stable cells [2])	EC50 (Ba/F3 stable cells [3])	EC50 (Ba/F3 stable cells [4])	EC50 (Ba/F3 stable cells [5])	EC50 (Ba/F3 stable cells [6])	SMILES
200 to 1000 nM	200 to 1000 nM	> 1000 nM	≤ 200 nM	≤ 200 nM	200 to 1000 nM	COc1cc2ncnc(Nc3ccc(Cl)c(Cl)c3F)c2cc1OC1CC(NC(=O)/C=C/CN(C)C)C1 (stereo not drawn) [Compound 42, (E)-N-(3-((4-((3,4-dichloro-2-fluorophenyl)amino)-7-methoxyquinazolin-6-yl)oxy)cyclobutyl)-4-(dimethylamino)but-2-enamide]
200 to 1000 nM	200 to 1000 nM	> 1000 nM	≤ 200 nM	200 to 1000 nM	> 1000 nM	CC#CC(=O)NC1CC(Oc2cc3c(Nc4ccc(Cl)c(Cl)c4F)ncnc3cc2OC)C1 (stereo not drawn) [Compound 43, N-(3-((4-((3,4-dichloro-2-fluorophenyl)amino)-7-methoxyquinazolin-6-yl)oxy)cyclobutyl)but-2-ynamide]
≤ 200 nM	200 to 1000 nM	≤ 200 nM	≤ 200 nM	≤ 200 nM	≤ 200 nM	C#CC(=O)N[C@H]1C[C@@H](Oc2cc3c(Nc4cccc5ccccc45)ncnc3cc2OC)C1 [Compound 47, N-((1s,3s)-3-((7-methoxy-4-(naphthalen-1-ylamino)quinazolin-6-yl)oxy)cyclobutyl)propiolamide]
≤ 200 nM	200 to 1000 nM	≤ 200 nM	≤ 200 nM	≤ 200 nM	≤ 200 nM	C#CC(=O)NC1CC(Oc2cc3c(Nc4ccc(Cl)c(Cl)c4F)ncnc3cc2OC)C1 (stereo not drawn) [Compound 49, N-(3-((4-((3,4-dichloro-2-fluorophenyl)amino)-7-methoxyquinazolin-6-yl)oxy)cyclobutyl)propiolamide]
≤ 200 nM	200 to 1000 nM	≤ 200 nM	≤ 200 nM	≤ 200 nM	≤ 200 nM	C#CC(=O)N1CCC(Oc2cc3c(Nc4ccc(Cl)c(Cl)c4F)ncnc3cc2OC)CC1 [Compound 52, 1-(4-((4-((3,4-dichloro-2-fluorophenyl)amino)-7-methoxyquinazolin-6-yl)oxy)piperidin-1-yl)prop-2-yn-1-one]
≤ 200 nM	≤ 200 nM	≤ 200 nM	≤ 200 nM	≤ 200 nM	≤ 200 nM	C#CC(=O)N1CCC(Oc2cc3c(Nc4ccc5ccccc5c4)ncnc3cc2OC)CC1 [Compound 53, 1-(4-((7-methoxy-4-(naphthalen-2-ylamino)quinazolin-6-yl)oxy)piperidin-1-yl)prop-2-yn-1-one]
≤ 200 nM	≤ 200 nM	≤ 200 nM	≤ 200 nM	≤ 200 nM	≤ 200 nM	C#CC(=O)N1CCC(Oc2cc3c(Nc4cccc5ccccc45)ncnc3cc2OC)CC1 [Compound 54, 1-(4-((7-methoxy-4-(naphthalen-1-ylamino)quinazolin-6-yl)oxy)piperidin-1-yl)prop-2-yn-1-one]
≤ 200 nM	≤ 200 nM	≤ 200 nM	≤ 200 nM	≤ 200 nM	≤ 200 nM	C#CC(=O)N1C2CCCC1CC(Oc1cc3c(Nc4cccc5ccccc45)ncnc3cc1OC)C2 (stereo not drawn) [Compound 57, 1-(3-((7-methoxy-4-(naphthalen-1-ylamino)quinazolin-6-yl)oxy)-9-azabicyclo[3.3.1]nonan-9-yl)prop-2-yn-1-one]
≤ 200 nM	200 to 1000 nM	≤ 200 nM	≤ 200 nM	≤ 200 nM	≤ 200 nM	C#CC(=O)N1CCCC(c2ccc3ncnc(Nc4ccc(Cl)c(Cl)c4F)c3c2)C1 (stereo not drawn) [Compound 61, 1-(3-(4-((3,4-dichloro-2-fluorophenyl)amino)quinazolin-6-yl)piperidin-1-yl)prop-2-yn-1-one]
